For assay [1], the target named is T1, HiBit-BRM fusion protein (Homo sapiens, UniProt P51531).
T1 construct: expressed in transfected cells
The experiment in a line: HiBiT-BRM cell-based degradation assay (Nano-Glo HiBiT Lytic Detection, 24 h). As to conditions: stable HeLa cell line expressing HiBiT-BRM; for DC50: read-out: BRM HiBit Degradation IC50. The procedure: (§1) Procedure: A stable HeLa cell line expressing HiBiT-BRM was generated. On day 0, 5000 cells were seeded in 40 μL of media into each well of 384-well cell culture plates. On day 1, cells were treated with 120 nL DMSO or 120 nL of 3-fold serially DMSO-diluted compounds (10 points in duplicate with 30 μM as final top dose). Subsequently plates were incubated for 24 h in a standard tissue culture incubator and equilibrated at room temperature for 15 minutes. Nano-Glo HiBiT Lytic Detection System (Promega N3050) reagent was freshly prepared and 20 ul was added to each well. Upon addition of this LgBit-containing reagent, the HiBiT and LgBiT proteins associate to form the luminescent NanoBiT Iuciferase. The plates were shaken for 10 minutes at room temperature and the bioluminescence read using an EnVision plate reader (PerkinElmer).
(§2) The degradation % was calculated using the following formula: % degradation=100%-100%×(LumSample−LumLC)/(LumHC−LumLC). DMSO treated cells are employed as High Control (HC) and 2 μM of a known BRM/BRG1 degrader standard treated cells are employed as Low Control (LC).
For orientation: With HiBiT, luminescence reflects the tagged protein that the partner subunit can reach.

The target of assay [2] is T2, HiBit-BRG1 fusion protein (Homo sapiens, UniProt P51532).
T2 construct: expressed in transfected cells
T2 sequence (P51532 whole entry, the tested form may be a part): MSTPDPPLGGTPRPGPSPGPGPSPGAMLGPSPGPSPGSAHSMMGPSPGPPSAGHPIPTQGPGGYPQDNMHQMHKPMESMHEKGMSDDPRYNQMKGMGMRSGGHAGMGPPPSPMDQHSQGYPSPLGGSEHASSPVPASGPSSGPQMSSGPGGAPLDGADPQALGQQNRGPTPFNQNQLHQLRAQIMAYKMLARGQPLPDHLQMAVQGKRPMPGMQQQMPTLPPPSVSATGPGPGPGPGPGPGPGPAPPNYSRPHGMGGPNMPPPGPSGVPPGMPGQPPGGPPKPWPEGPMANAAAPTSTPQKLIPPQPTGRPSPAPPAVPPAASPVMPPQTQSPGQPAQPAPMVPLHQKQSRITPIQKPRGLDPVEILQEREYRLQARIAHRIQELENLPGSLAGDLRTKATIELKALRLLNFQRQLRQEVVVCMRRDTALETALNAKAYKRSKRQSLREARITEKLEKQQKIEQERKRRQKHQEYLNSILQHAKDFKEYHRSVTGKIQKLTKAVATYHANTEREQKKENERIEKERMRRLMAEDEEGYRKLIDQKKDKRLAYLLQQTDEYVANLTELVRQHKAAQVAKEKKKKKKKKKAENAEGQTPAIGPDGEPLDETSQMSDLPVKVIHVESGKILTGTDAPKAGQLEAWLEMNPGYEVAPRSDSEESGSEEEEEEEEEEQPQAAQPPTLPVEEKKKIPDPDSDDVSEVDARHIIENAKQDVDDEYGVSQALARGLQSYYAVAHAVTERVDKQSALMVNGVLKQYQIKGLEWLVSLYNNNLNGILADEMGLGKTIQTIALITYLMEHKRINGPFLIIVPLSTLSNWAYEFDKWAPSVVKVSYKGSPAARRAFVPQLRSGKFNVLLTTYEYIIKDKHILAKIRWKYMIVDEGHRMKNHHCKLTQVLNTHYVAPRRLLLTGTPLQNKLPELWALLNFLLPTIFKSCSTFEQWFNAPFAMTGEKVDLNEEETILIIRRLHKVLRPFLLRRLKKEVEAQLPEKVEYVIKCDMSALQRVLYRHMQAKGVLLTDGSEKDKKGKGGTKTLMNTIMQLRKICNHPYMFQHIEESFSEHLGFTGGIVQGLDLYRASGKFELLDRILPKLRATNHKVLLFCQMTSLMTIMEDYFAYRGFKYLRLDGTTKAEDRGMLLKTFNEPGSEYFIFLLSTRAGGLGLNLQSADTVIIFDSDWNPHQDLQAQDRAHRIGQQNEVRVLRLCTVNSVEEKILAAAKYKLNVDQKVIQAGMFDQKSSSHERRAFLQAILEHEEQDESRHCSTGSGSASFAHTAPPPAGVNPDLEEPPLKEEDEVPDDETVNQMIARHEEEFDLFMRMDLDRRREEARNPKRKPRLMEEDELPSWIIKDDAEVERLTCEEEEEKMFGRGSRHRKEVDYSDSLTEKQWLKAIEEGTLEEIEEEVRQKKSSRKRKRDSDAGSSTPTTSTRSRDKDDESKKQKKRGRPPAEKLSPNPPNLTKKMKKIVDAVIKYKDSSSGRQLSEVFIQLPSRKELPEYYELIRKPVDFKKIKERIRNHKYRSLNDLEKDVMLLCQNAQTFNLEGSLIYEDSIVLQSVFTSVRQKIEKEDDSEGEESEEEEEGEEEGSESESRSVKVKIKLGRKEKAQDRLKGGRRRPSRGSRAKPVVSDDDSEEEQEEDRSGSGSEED
Kind of assay: HiBiT-BRG1 cell-based degradation assay (Nano-Glo HiBiT Lytic Detection, 24 h). As to conditions: stable HeLa cell line expressing HiBit-BRG1 and LgBit; for Dmax: read-out: BRG1 HiBit Degradation Maximum (%); for DC50: read-out: BRMG1 HiBit Degradation IC50. The procedure:
as §1
For measurement of BRG1 degradation, a stable HeLa cell line expressing HiBit-BRG1 and LgBit was generated. The same protocol as above was then followed.
as §2

Each structure is given as a SMILES string.

Eleven molecules from patent US20250304596A1, “PYRAZINE DERIVATIVES AND USES THEREOF” (FOGHORN THERAPEUTICS INC., priority 2022, published 2025) can be followed below.

T1 sequence (P51531 whole entry, the tested form may be a part): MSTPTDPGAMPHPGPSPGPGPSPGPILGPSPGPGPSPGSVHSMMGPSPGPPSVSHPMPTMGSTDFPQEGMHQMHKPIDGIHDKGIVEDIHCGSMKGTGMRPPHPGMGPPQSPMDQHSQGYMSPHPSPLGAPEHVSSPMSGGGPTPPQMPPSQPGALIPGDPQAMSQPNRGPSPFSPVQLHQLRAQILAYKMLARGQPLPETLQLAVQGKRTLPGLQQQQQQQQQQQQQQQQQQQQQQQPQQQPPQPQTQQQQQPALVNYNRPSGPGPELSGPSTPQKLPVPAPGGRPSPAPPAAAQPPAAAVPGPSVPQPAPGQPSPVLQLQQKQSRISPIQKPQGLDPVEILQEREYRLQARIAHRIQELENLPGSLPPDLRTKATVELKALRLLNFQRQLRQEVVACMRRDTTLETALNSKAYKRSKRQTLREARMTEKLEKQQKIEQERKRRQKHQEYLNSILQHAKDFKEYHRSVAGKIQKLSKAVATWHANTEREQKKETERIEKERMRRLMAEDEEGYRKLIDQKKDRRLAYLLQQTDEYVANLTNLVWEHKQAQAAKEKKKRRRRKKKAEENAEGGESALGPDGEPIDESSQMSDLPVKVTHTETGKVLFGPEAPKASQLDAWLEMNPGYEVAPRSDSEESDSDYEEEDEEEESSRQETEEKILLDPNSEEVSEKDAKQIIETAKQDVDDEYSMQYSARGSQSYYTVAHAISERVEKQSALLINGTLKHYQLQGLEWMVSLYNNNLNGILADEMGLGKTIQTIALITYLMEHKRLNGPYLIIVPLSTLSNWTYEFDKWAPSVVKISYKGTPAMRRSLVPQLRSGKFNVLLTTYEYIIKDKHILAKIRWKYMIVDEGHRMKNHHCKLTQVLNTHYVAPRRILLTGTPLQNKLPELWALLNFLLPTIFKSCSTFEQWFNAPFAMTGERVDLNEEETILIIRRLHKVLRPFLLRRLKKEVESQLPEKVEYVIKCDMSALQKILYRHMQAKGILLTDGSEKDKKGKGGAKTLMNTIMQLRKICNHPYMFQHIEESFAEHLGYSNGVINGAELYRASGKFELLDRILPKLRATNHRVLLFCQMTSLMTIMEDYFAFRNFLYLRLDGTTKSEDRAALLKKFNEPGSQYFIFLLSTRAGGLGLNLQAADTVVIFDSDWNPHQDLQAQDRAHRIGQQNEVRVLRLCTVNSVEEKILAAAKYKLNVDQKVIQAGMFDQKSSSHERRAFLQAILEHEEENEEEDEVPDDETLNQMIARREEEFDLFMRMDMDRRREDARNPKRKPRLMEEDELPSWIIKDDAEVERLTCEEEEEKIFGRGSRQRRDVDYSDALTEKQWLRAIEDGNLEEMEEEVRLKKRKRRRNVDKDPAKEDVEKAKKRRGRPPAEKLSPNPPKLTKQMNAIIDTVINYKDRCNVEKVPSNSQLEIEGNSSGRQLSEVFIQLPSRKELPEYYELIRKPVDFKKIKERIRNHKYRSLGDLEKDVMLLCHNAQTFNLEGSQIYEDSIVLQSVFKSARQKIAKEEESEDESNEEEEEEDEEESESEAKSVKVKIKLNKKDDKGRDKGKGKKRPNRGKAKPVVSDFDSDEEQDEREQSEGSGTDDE

In the case of `Cc1ncsc1-c1ccc([C@H](C)NC(=O)[C@@H]2C[C@@H](O)CN2C(=O)[C@@H](c2cc(-c3cnc(N4C[C@@H]5[C@H](C4)[C@H]5c4sc5nnc(-c6ccccc6O)cc5c4C)nc3)no2)C(C)C)cc1` (stereo in doubt) [Compound 40, (2S,4R)-4-hydroxy-1-((R)-2-(3-(2-((1R,5R)-6-(3-(2-hydroxyphenyl)-5-methylthieno[2,3-c]pyridazin-6-yl)-3-azabicyclo[3.1.0]hexan-3-yl)pyrimidin-5-yl)isoxazol-5-yl)-3-methylbutanoyl)-N-((S)-1-(4-(4-methylthiazol-5-yl)phenyl)ethyl)pyrrolidine-2-carboxamide], in assay [1], the “BRM HiBit Degradation Maximum (%)” value is recorded as “A (“A” indicates maximum degradation ≥75%)” and the DC50 is below 10 nM. Further, in assay [2], the Dmax is below 50% and the DC50 is above 100 nM.

With `Cc1ncsc1-c1ccc([C@H](C)NC(=O)[C@@H]2C[C@@H](O)CN2C(=O)[C@@H](c2cc(-c3ccc(N4CCC(c5sc6nnc(-c7ccccc7O)cc6c5C)CC4)cc3F)no2)C(C)C)cc1` [Compound 4, (2S,4R)-1-((R)-2-(3-(2-fluoro-4-(4-(3-(2-hydroxyphenyl)-5-methylthieno[2,3-c]pyridazin-6-yl)piperidin-1-yl)phenyl)isoxazol-5-yl)-3-methylbutanoyl)-4-hydroxy-N-((S)-1-(4-(4-methylthiazol-5-yl)phenyl)ethyl)pyrrolidine-2-carboxamide], in assay [1], the “BRM HiBit Degradation Maximum (%)” value was “A (“A” indicates maximum degradation ≥75%)” and the DC50 is below 10 nM. Moreover, in assay [2], the Dmax was below 50% and the DC50 is above 1000 nM.

Regarding `Cc1ncsc1-c1ccc([C@H](C)NC(=O)[C@@H]2C[C@@H](O)CN2C(=O)[C@@H](c2cc(-c3cnc(N4CC[C@H](c5cc6cc(-c7ccccc7O)nnc6s5)C4)nc3)no2)C(C)C)cc1` [Compound 6, (2S,4R)-4-hydroxy-1-((R)-2-(3-(2-((S)-3-(3-(2-hydroxyphenyl)thieno[2,3-c]pyridazin-6-yl)pyrrolidin-1-yl)pyrimidin-5-yl)isoxazol-5-yl)-3-methylbutanoyl)-N-((S)-1-(4-(4-methylthiazol-5-yl)phenyl)ethyl)pyrrolidine-2-carboxamide], in assay [1], the “BRM HiBit Degradation Maximum (%)” value is reported as “A (“A” indicates maximum degradation ≥75%)” and the DC50 is below 10 nM. Moreover, in assay [2], the Dmax is below 50% and the DC50 is above 1000 nM.

In the case of `Cc1ncsc1-c1ccc([C@H](C)NC(=O)[C@@H]2C[C@@H](O)CN2C(=O)[C@@H](c2cc(-c3ccnc(N4CC[C@@H](c5sc6nnc(-c7ccccc7O)cc6c5C)C4)n3)no2)C(C)C)cc1` [Compound 7, (2S,4R)-4-hydroxy-1-((R)-2-(3-(2-((R)-3-(3-(2-hydroxyphenyl)-5-methylthieno[2,3-c]pyridazin-6-yl)pyrrolidin-1-yl)pyrimidin-4-yl)isoxazol-5-yl)-3-methylbutanoyl)-N-((S)-1-(4-(4-methylthiazol-5-yl)phenyl)ethyl)pyrrolidine-2-carboxamide], in assay [1], the “BRM HiBit Degradation Maximum (%)” value is recorded as “C (“C” indicates maximum degradation <50%)” and the DC50 is above 1000 nM. Besides, in assay [2], the Dmax is below 50% and the DC50 was above 1000 nM.

As for `Cc1ncsc1-c1ccc([C@H](C)NC(=O)[C@@H]2C[C@@H](O)CN2C(=O)[C@@H](c2cc(-c3ccnc(N4CC[C@H](c5sc6nnc(-c7ccccc7O)cc6c5C)C4)n3)no2)C(C)C)cc1` [Compound 8, (2S,4R)-4-hydroxy-1-((R)-2-(3-(2-((S)-3-(3-(2-hydroxyphenyl)-5-methylthieno[2,3-c]pyridazin-6-yl)pyrrolidin-1-yl)pyrimidin-4-yl)isoxazol-5-yl)-3-methylbutanoyl)-N-((S)-1-(4-(4-methylthiazol-5-yl)phenyl)ethyl)pyrrolidine-2-carboxamide], in assay [1], the “BRM HiBit Degradation Maximum (%)” value is “A (“A” indicates maximum degradation ≥75%)” and the DC50 is above 10 nM. In assay [2], the Dmax is below 50% and the DC50 is above 1000 nM.

In the case of `Cc1ncsc1-c1ccc([C@H](C)NC(=O)[C@@H]2C[C@@H](O)CN2C(=O)[C@@H](c2cc(-c3cnc(N4CCN(c5cc6nnc(-c7ccccc7O)cc6s5)CC4)nc3)no2)C(C)C)cc1` [Compound 9, (2S,4R)-4-hydroxy-1-{2-[3-(2-{4-[3-(2-hydroxyphenyl)thieno[3,2-c]pyridazin-6-yl]piperazin-1-yl}pyrimidin-5-yl)-1,2-oxazol-5-yl]-3-methylbutanoyl}-N-[(1S)-1-[4-(4-methyl-1,3-thiazol-5-yl)phenyl]ethyl]pyrrolidine-2-carboxamide], in assay [1], the “BRM HiBit Degradation Maximum (%)” value was “A (“A” indicates maximum degradation ≥75%)” and the DC50 was below 10 nM. In addition, in assay [2], the Dmax is above 75% and the DC50 was above 10 nM.

As to `Cc1ncsc1-c1ccc([C@H](C)NC(=O)[C@@H]2C[C@@H](O)CN2C(=O)[C@@H](c2cc(-c3ccnc(N4CCC(c5sc6nnc(-c7ccccc7O)cc6c5C)CC4)c3)no2)C(C)C)cc1` [Compound 10, (2S,4R)-4-hydroxy-1-((R)-2-(3-(2-(4-(3-(2-hydroxyphenyl)-5-methylthieno[2,3-c]pyridazin-6-yl)piperidin-1-yl)pyridin-4-yl)isoxazol-5-yl)-3-methylbutanoyl)-N-((S)-1-(4-(4-methylthiazol-5-yl)phenyl)ethyl)pyrrolidine-2-carboxamide], in assay [1], the “BRM HiBit Degradation Maximum (%)” value is given as “A (“A” indicates maximum degradation ≥75%)” and the DC50 was above 10 nM. In assay [2], the Dmax was above 75% and the DC50 was above 10 nM.

Regarding `Cc1ncsc1-c1ccc([C@H](C)NC(=O)[C@@H]2C[C@@H](O)CN2C(=O)[C@@H](c2cc(-c3c(C)nc(N4CCC(c5sc6nnc(-c7ccccc7O)cc6c5C)CC4)nc3C)no2)C(C)C)cc1` [Compound 11, (2S,4R)-4-hydroxy-1-((R)-2-(3-(2-(4-(3-(2-hydroxyphenyl)-5-methylthieno[2,3-c]pyridazin-6-yl)piperidin-1-yl)-4,6-dimethylpyrimidin-5-yl)isoxazol-5-yl)-3-methylbutanoyl)-N-((S)-1-(4-(4-methylthiazol-5-yl)phenyl)ethyl)pyrrolidine-2-carboxamide], in assay [1], the “BRM HiBit Degradation Maximum (%)” value is reported as “A (“A” indicates maximum degradation ≥75%)” and the DC50 was below 10 nM. In assay [2], the Dmax is above 50% and the DC50 is above 10 nM.

`Cc1ncsc1-c1ccc([C@H](C)NC(=O)[C@@H]2C[C@@H](O)CN2C(=O)[C@@H](c2cc(N3CCC4(CC3)CC(c3cc5nnc(-c6ccccc6O)cc5s3)C4)no2)C(C)C)cc1` [Compound 12, (2S,4R)-4-hydroxy-1-((R)-2-(3-(2-(3-(2-hydroxyphenyl)thieno[3,2-c]pyridazin-6-yl)-7-azaspiro[3.5]nonan-7-yl)isoxazol-5-yl)-3-methylbutanoyl)-N—((S)-1-(4-(4-methylthiazol-5-yl)phenyl)ethyl)pyrrolidine-2-carboxamide]: in assay [1], the “BRM HiBit Degradation Maximum (%)” value is on record as “A (“A” indicates maximum degradation ≥75%)” and the DC50 was below 10 nM. In addition, in assay [2], the Dmax was above 50% and the DC50 is above 100 nM.

Take `Cc1ncsc1-c1ccc([C@H](C)NC(=O)[C@@H]2C[C@@H](O)CN2C(=O)[C@@H](c2cc(-c3cnc(N4C[C@H]5C[C@@H]4C[C@H]5c4cc5cc(-c6ccccc6O)nnc5s4)nc3)no2)C(C)C)cc1` [Compound 13, (2S,4R)-4-hydroxy-1-((R)-2-(3-(2-((1R,4S,5R)-5-(3-(2-hydroxyphenyl)thieno[2,3-c]pyridazin-6-yl)-2-azabicyclo[2.2.1]heptan-2-yl)pyrimidin-5-yl)isoxazol-5-yl)-3-methylbutanoyl)-N-((S)-1-(4-(4-methylthiazol-5-yl)phenyl)ethyl)pyrrolidine-2-carboxamide]: in assay [1], the “BRM HiBit Degradation Maximum (%)” value is on record as “C (“C” indicates maximum degradation <50%)” and the DC50 was above 1000 nM. Also, in assay [2], the Dmax is below 50% and the DC50 is above 1000 nM.

On to `Cc1ncsc1-c1ccc([C@H](C)NC(=O)[C@@H]2C[C@@H](O)CN2C(=O)[C@@H](c2cc(-c3cnc(N4C[C@H]5C[C@@H](C4)[C@H]5c4cc5cc(-c6ccccc6O)nnc5s4)nc3)no2)C(C)C)cc1` [Compound 15, (2S,4R)-4-hydroxy-1-((R)-2-(3-(2-((1R,5S,6S)-6-(3-(2-hydroxyphenyl)thieno[2,3-c]pyridazin-6-yl)-3-azabicyclo[3.1.1]heptan-3-yl)pyrimidin-5-yl)isoxazol-5-yl)-3-methylbutanoyl)-N-((S)-1-(4-(4-methylthiazol-5-yl)phenyl)ethyl)pyrrolidine-2-carboxamide], for which, in assay [1], the “BRM HiBit Degradation Maximum (%)” value is reported as “B (“B” indicates maximum degradation ≥50%)” and the DC50 is above 100 nM. Further, in assay [2], the Dmax was below 50% and the DC50 was above 1000 nM.
